Measured values published in paper PMC6522510 (Nature Communications, 2019).
Where a name gives a salt, the structure may show the parent alone. Read-outs that look alike come from different tables or passages of the source.

What was measured:
Parameters in all cases: species or system AML cell lines (8); Primary HTS, single concentration about 10 uM, Cell Titer Glo viability; log10 luminescence, per cent inhibition relative to cycloheximide control
Conditions in all cases: 72 h, relative to cycloheximide control, log10 luminescence, inhibitor
CHRF288-11 = test system: CHRF288-11
CMK = test system: CMK
CMS = test system: CMS
M07e = test system: M07e
ML-2 = test system: ML-2
MOLM-13 = test system: MOLM-13
MV4-11 = test system: MV4-11
U937 = test system: U937

## C[C@H]1O[C@@H](O[C@H]2[C@@H](O)C[C@H](O[C@H]3[C@@H](O)C[C@H](O[C@H]4CC[C@@]5(C)[C@H](CC[C@@H]6[C@@H]5CC[C@]5(C)[C@@H](C7=CC(=O)OC7)CC[C@]65O)C4)O[C@@H]3C)O[C@@H]2C)C[C@H](O)[C@@H]1O [SJ000285233-5, DIGITOXIN]
CHRF288-11; CHRF288-11 %inh, 10 µM
  CHRF288-11 %inh: 112.4%
CMK; CMK %inh, 10 µM
  CMK %inh: 108.7%
CMS; CMS %inh, 10 µM
  CMS %inh: 97.86%
M07e; M07e %inh, 10 µM
  M07e %inh: 112.2%
ML-2; ML-2 %inh, 10 µM
  ML-2 %inh: 58.4%
MOLM-13; MOLM-13 %inh, 10 µM
  MOLM-13 %inh: 87.24%
MV4-11; MV4-11 %inh, 10 µM
  MV4-11 %inh: 76.58%
U937; U937 %inh, 10 µM
  U937 %inh: 78.87%

## Cn1cnc([N+](=O)[O-])c1Sc1ncnc2[nH]cnc12 [SJ000285241-8, AZATHIOPRINE]
CHRF288-11
  CHRF288-11 %inh: 14.99%
CMK
  CMK %inh: 49.74%
CMS
  CMS %inh: 0.5483%
M07e
  M07e %inh: 7.374%
ML-2
  ML-2 %inh: 14.66%
MOLM-13
  MOLM-13 %inh: 36.41%
MV4-11
  MV4-11 %inh: 14.19%
U937
  U937 %inh: -0.6587%

## Cc1ccc2cc3c(ccc4ccccc43)c3c2c1CC3 [SJ000285253-3, 3-METHYLCHOLANTHRENE]
CHRF288-11
  CHRF288-11 %inh: 5.022%
CMK
  CMK %inh: 1.143%
CMS
  CMS %inh: 3.804%
M07e
  M07e %inh: 0.9432%
ML-2
  ML-2 %inh: 4.978%
MOLM-13
  MOLM-13 %inh: 2.389%
MV4-11
  MV4-11 %inh: 4.129%
U937
  U937 %inh: 0.01725%

## Oc1c(Cl)cc(Cl)c(Cl)c1Cc1c(O)c(Cl)cc(Cl)c1Cl [SJ000285273-4, HEXACHLOROPHENE]
CHRF288-11
  CHRF288-11 %inh: 23.59%
CMK
  CMK %inh: 117.7%
CMS
  CMS %inh: 32.47%
M07e
  M07e %inh: 10.84%
ML-2
  ML-2 %inh: 15.89%
MOLM-13
  MOLM-13 %inh: 75.15%
MV4-11
  MV4-11 %inh: 7.526%
U937
  U937 %inh: 24.03%

## O=C(O)P(=O)(O)O [SJ000285291-3, FOSCARNET SODIUM]
CHRF288-11
  CHRF288-11 %inh: -2.096%
CMK
  CMK %inh: 3.052%
CMS
  CMS %inh: 0.8709%
M07e
  M07e %inh: -4.14%
ML-2
  ML-2 %inh: -0.9621%
MOLM-13
  MOLM-13 %inh: 3.283%
MV4-11
  MV4-11 %inh: 0.7745%
U937
  U937 %inh: -2.189%

## CN[C@@H]1[C@H](O[C@H]2[C@H](O[C@H]3[C@H](O)[C@@H](O)[C@H](N=C(N)N)[C@@H](O)[C@@H]3N=C(N)N)O[C@@H](C)[C@]2(O)C=O)O[C@@H](CO)[C@H](O)[C@H]1O [SJ000285297-4, STREPTOMYCIN SULFATE]
CHRF288-11; CHRF288-11 %inh, 10 µM
  CHRF288-11 %inh: 6.76%
CMK; CMK %inh, 10 µM
  CMK %inh: 3.295%
CMS; CMS %inh, 10 µM
  CMS %inh: -1.268%
M07e; M07e %inh, 10 µM
  M07e %inh: -4.718%
ML-2; ML-2 %inh, 10 µM
  ML-2 %inh: -3.476%
MOLM-13; MOLM-13 %inh, 10 µM
  MOLM-13 %inh: 1.953%
MV4-11; MV4-11 %inh, 10 µM
  MV4-11 %inh: -1.642%
U937; U937 %inh, 10 µM
  U937 %inh: -1.404%

## CN[C@@H]1[C@H](O[C@H]2[C@H](O[C@H]3[C@H](O)[C@@H](O)[C@H](N=C(N)N)[C@@H](O)[C@@H]3N=C(N)N)O[C@@H](C)[C@]2(O)C=O)O[C@@H](CO)[C@H](O)[C@H]1O [SJ000285297-5, STREPTOMYCIN SULFATE]
CHRF288-11; CHRF288-11 %inh, 10 µM
  CHRF288-11 %inh: -4.766%
CMK; CMK %inh, 10 µM
  CMK %inh: -3.106%
CMS; CMS %inh, 10 µM
  CMS %inh: -4.665%
M07e; M07e %inh, 10 µM
  M07e %inh: 1.975%
ML-2; ML-2 %inh, 10 µM
  ML-2 %inh: 1.375%
MOLM-13; MOLM-13 %inh, 10 µM
  MOLM-13 %inh: 2.09%
MV4-11; MV4-11 %inh, 10 µM
  MV4-11 %inh: 1.701%
U937; U937 %inh, 10 µM
  U937 %inh: -2.931%

## Oc1c(Cl)cc(Cl)c2cccnc12 [SJ000285324-3, CHLOROXINE]
CHRF288-11
  CHRF288-11 %inh: 73.25%
CMK
  CMK %inh: 45.1%
CMS
  CMS %inh: 2.824%
M07e
  M07e %inh: 20.56%
ML-2
  ML-2 %inh: 49.1%
MOLM-13
  MOLM-13 %inh: 6.345%
MV4-11
  MV4-11 %inh: 77.67%
U937
  U937 %inh: 23.85%

## CC(C)(Oc1ccc(Cl)cc1)C(=O)O [SJ000285361-4, CLOFIBRIC ACID]
CHRF288-11
  CHRF288-11 %inh: 12.15%
CMK
  CMK %inh: -0.9561%
CMS
  CMS %inh: 10.42%
M07e
  M07e %inh: 1.241%
ML-2
  ML-2 %inh: 4.873%
MOLM-13
  MOLM-13 %inh: 6.685%
MV4-11
  MV4-11 %inh: 17.98%
U937
  U937 %inh: 12.99%

## COc1ccc(Cl)cc1C(=O)NCCc1ccc(S(=O)(=O)NC(=O)NC2CCCCC2)cc1 [SJ000285391-7, GLYBURIDE | GLIBENCLAMIDE]
CHRF288-11
  CHRF288-11 %inh: 12.75%
CMK
  CMK %inh: -6.568%
CMS
  CMS %inh: -0.9752%
M07e
  M07e %inh: 3.672%
ML-2
  ML-2 %inh: 1.589%
MOLM-13
  MOLM-13 %inh: 3.373%
MV4-11
  MV4-11 %inh: 0.5716%
U937
  U937 %inh: 0.5073%

## CCC1(C)CC(=O)NC1=O (centres unmarked) [SJ000285397-7, ETHOSUXIMIDE]
CHRF288-11
  CHRF288-11 %inh: 0.04293%
CMK
  CMK %inh: -1.781%
CMS
  CMS %inh: -0.558%
M07e
  M07e %inh: -0.04938%
ML-2
  ML-2 %inh: 3.243%
MOLM-13
  MOLM-13 %inh: 28.73%
MV4-11
  MV4-11 %inh: -0.6847%
U937
  U937 %inh: 0.5757%

## O=C1CCc2cc(OCCCCc3nnnn3C3CCCCC3)ccc2N1 [SJ000285433-6, CILOSTAZOL]
CHRF288-11
  CHRF288-11 %inh: -1.23%
CMK
  CMK %inh: 3.033%
CMS
  CMS %inh: 1.219%
M07e
  M07e %inh: 4.292%
ML-2
  ML-2 %inh: -1.307%
MOLM-13
  MOLM-13 %inh: 2.454%
MV4-11
  MV4-11 %inh: 1.479%
U937
  U937 %inh: -1.919%

## COCCOC(=O)C1=C(C)NC(C)=C(C(=O)OC(C)C)C1c1cccc([N+](=O)[O-])c1 (centres unmarked) [SJ000285435-8, NIMODIPINE]
CHRF288-11; CHRF288-11 %inh, 10 µM
  CHRF288-11 %inh: 5.054%
CMK; CMK %inh, 10 µM
  CMK %inh: -2.491%
CMS; CMS %inh, 10 µM
  CMS %inh: -0.4109%
M07e; M07e %inh, 10 µM
  M07e %inh: -0.8371%
ML-2; ML-2 %inh, 10 µM
  ML-2 %inh: 3.664%
MOLM-13; MOLM-13 %inh, 10 µM
  MOLM-13 %inh: 3.286%
MV4-11; MV4-11 %inh, 10 µM
  MV4-11 %inh: 7.361%
U937; U937 %inh, 10 µM
  U937 %inh: 6.247%

## COCCOC(=O)C1=C(C)NC(C)=C(C(=O)OC(C)C)C1c1cccc([N+](=O)[O-])c1 (centres unmarked) [SJ000285435-9, NIMODIPINE]
CHRF288-11; CHRF288-11 %inh, 10 µM
  CHRF288-11 %inh: 6.868%
CMK; CMK %inh, 10 µM
  CMK %inh: 3.053%
CMS; CMS %inh, 10 µM
  CMS %inh: -2.02%
M07e; M07e %inh, 10 µM
  M07e %inh: 0.4803%
ML-2; ML-2 %inh, 10 µM
  ML-2 %inh: 2.121%
MOLM-13; MOLM-13 %inh, 10 µM
  MOLM-13 %inh: 3.201%
MV4-11; MV4-11 %inh, 10 µM
  MV4-11 %inh: 8.576%
U937; U937 %inh, 10 µM
  U937 %inh: 7.911%

## COCCOC(=O)C1=C(C)NC(C)=C(C(=O)OC(C)C)C1c1cccc([N+](=O)[O-])c1 (centres unmarked) [SJ000285435-10, NIMODIPINE]
CHRF288-11; CHRF288-11 %inh, 10 µM
  CHRF288-11 %inh: 10.94%
CMK; CMK %inh, 10 µM
  CMK %inh: 2.191%
CMS; CMS %inh, 10 µM
  CMS %inh: 10.67%
M07e; M07e %inh, 10 µM
  M07e %inh: 6.293%
ML-2; ML-2 %inh, 10 µM
  ML-2 %inh: 3.623%
MOLM-13; MOLM-13 %inh, 10 µM
  MOLM-13 %inh: 3.657%
MV4-11; MV4-11 %inh, 10 µM
  MV4-11 %inh: 10.46%
U937; U937 %inh, 10 µM
  U937 %inh: 7.013%

## CC1=Nc2ccc(Cl)cc2S(=O)(=O)N1 [SJ000285438-7, DIAZOXIDE]
CHRF288-11
  CHRF288-11 %inh: 3.174%
CMK
  CMK %inh: -0.09563%
CMS
  CMS %inh: -4.011%
M07e
  M07e %inh: -1.23%
ML-2
  ML-2 %inh: -2.212%
MOLM-13
  MOLM-13 %inh: 13.73%
MV4-11
  MV4-11 %inh: -7.128%
U937
  U937 %inh: 2.608%
